This note sets out measurements from patent US6440971B1, “Binuclear complex” (A+ Science Invest AB, priority 1997, dated 2002).

One assay has as its system calf thymus DNA. The assay is described as follows: sodium dodecylsulphate-driven dissociation of the DNA complex. The following applies: [NaCl]=159 mM. The format is binding. The protocol: While the association reaction is relatively insensitive to the ionic strength of the solution, the dissociation is much faster at physiological salt concentrations, however, the rate constant is still only 0.008 S^−1 at [NaCl]=159 mM.

In a further assay the test system is DNA. In words: linear dichroism of complex bound to DNA. The conditions noted are these: 10 mM and 200 mM aqueous NaCl, [Ru]=5 μM, P/Ru=30; negative signals at 380 and 470 nm. Format: binding. An excerpt:
The properties of the Δ,Δ enantiomer of (I) regarding DNA binding was then studied.
The amplitude of the negative signals 380 and 470 nm indicate bis-intercalation of the complex (Lincoln, P. et al. JACS 118 (1996) 2644).

The next assay has as its system Lung carcinoma HBT182. The assay is described as follows: growth inhibition of tumour cell lines. The following applies: read-out: half maximum growth inhibitory concentration (IC50), Δ,Δ-enantiomers of (I)-(IV), Δ-enantiomer of (V).
The next assay has as its system SUDHL 1. In words: growth inhibition of tumour cell lines. The following applies: read-out: half maximum growth inhibitory concentration (IC50), Δ,Δ-enantiomers of (I)-(IV), Δ-enantiomer of (V).
A further assay concerns LAMA. In words: growth inhibition of tumour cell lines. The conditions noted are these: read-out: half maximum growth inhibitory concentration (IC50), Δ,Δ-enantiomers of (I)-(IV), Δ-enantiomer of (V).

On to “μ-[N,N′-bis(12-cyano-12,13-dihydro-11H-cyclopentadipyrido[b:3,2-h:2′,3′-j]phenazine-12-carbonyl)-1,4-diaminobutane-N^4,N^5,N′^4,N′^5]-tetra (1,10-phenanthroline N^1,N^10) diruthenium(4+) -tetra-chloride [(I)]”, for which, in the assay with calf thymus DNA, the dissociation rate constant turned out to be 0.008 S^−1. Also, the DNA binding mode entry in the assay on DNA is on record as “bis-intercalation”. Also, the results for the IC50 with Lung carcinoma HBT182, in the assay with SUDHL 1 and in the assay on LAMA were 9 µM, 14 µM and 8 µM, respectively.
In the case of `[Cl-].[Cl-].[Ru+2].c1ccc2nc3c4cccnc4c4ncccc4c3nc2c1.c1cnc2c(c1)ccc1cccnc12.c1cnc2c(c1)ccc1cccnc12` [(V), reference compound], the figures for the IC50 in the assay with Lung carcinoma HBT182, in the assay on SUDHL 1 and in the assay with LAMA were 38 µM, 39 µM and 43 µM, respectively.
For the compound “μ-[N,N′-bi (12-cyano-12,13-dihydro-11H-cyclopentadipyrido[b:3,2-h:7′,3′-j]phenazine-12-carbonyl)-1,2-diaminoethane N^4,N^5,N^4′,N^5′]-tetra(2,2′-bipyridine N^1,N^1′)-diruthenium(4+)-tetrachloride [(IV)]”, the IC50 was 10 µM in the assay with Lung carcinoma HBT182, 22 µM in the assay on SUDHL 1 and 16 µM with LAMA.
In the same order, the values of “Δ,Δμ-[N,N′-bis(12-cyano-12,13-dihydro-11H-cyclopentadipyrido[b:3,2-h:2′,3′-j]phenazine-12-carbonyl)-1,4-diaminobutane N^4N^5,N^4,N^5′]-tetra(2,2′-bipyridine N^1,N^1′)diruthenium(4+)-tetrachloride [(II)]” are 8 µM, 12 µM and 9 µM.
In the same order, the values of “μ-[N,N′-bis(12-cyano-12,3-dihydro-11H-cyclopentadipyrido[b:3,2-h:2′,3′-j]phenazine-12-carbonyl)-1,2-diaminoethane N^4,N^5,N^4′,N^5′]-tetra(1,10-phenanthroline N^1,N^10)-diruthenium(4+)-tetrachloride [(III)]” are 19 µM, 14 µM and 12 µM.
